The structures appear in SMILES notation. The source made the active and inactive calls. The calls are words filed in the database; no cut-off is given here.

Data set [1] can be described thus: Toxicity in mouse assessed as grooming time at 100 mg/kg by open field test (reference value: 10.91 +/- 2.01 sec). Format: organism-based. Particulars: in vivo, 2 s.
For data set [2], the system named is Plasmodium falciparum. As to the kind of experiment: Antimalarial activity against trophozoite stage chloroquine-sensitive Plasmodium falciparum 3D7 assessed as growth inhibition incubated with compound for 6 hrs and measured 72 hrs post invasion by SYBR Green dye based analysis. Format: functional, organism-based.
Data set [3] deals with Plasmodium falciparum. As to the kind of experiment: Antimalarial activity against synchronized-schizont stage chloroquine-sensitive Plasmodium falciparum 3D7 assessed as delay in progression measured upto 60 hrs by Giemsa staining based light microscopic analysis. It counts as functional, organism-based.
Data set [4] is described as follows: Metabolic stability in mouse liver S9 fraction assessed as intrinsic clearance at 2 uM measured for 90 mins by LC-MS/MS analysis. It counts as ADME, subcellular. The note with it: read-out: CLH.
For the next data set, the system named is Hemozoin. Briefly: Inhibition of beta-hematin formation in Plasmodium falciparum by UV-visible SpectraMax P340 plate reader analysis.
Data set [5] has as its system Plasmodium falciparum. As to the kind of experiment: Antimalarial activity against synchronized-ring stage chloroquine-sensitive Plasmodium falciparum 3D7 assessed as inhibition of parasite growth by measuring pyknotic appearance measured upto 60 hrs by Giemsa staining based light microscopic analysis. Format: functional, organism-based.
A further data set deals with T1, Falcipain-3 (Plasmodium falciparum 3D7, UniProt Q8IIL0).
T1 sequence (Q8IIL0 whole entry): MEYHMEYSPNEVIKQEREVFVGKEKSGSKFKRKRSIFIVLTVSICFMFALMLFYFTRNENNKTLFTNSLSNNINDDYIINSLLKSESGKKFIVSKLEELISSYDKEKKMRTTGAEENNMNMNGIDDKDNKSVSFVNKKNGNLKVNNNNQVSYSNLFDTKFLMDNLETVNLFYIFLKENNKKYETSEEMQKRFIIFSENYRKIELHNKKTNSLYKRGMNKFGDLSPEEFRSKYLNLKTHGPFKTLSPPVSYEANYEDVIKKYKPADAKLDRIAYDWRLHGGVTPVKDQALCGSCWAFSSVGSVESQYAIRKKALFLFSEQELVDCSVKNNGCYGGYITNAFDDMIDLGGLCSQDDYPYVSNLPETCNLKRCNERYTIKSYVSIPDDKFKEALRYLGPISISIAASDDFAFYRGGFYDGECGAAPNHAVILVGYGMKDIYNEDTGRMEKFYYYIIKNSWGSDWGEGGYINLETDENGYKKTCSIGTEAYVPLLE
As to the kind of experiment: Binding affinity to N-terminal 6His-tagged recombinant Plasmodium falciparum FP3 expressed in Escherichia coli M15 assessed as dissociation constant incubated for 15 mins in presence of lysine reactive dye by microscale thermophoretic analysis. Background: In MST a laser heats a spot of the sample, and binding alters the fluorescence response.

Data set [6] deals with Plasmodium falciparum. As to the kind of experiment: Antimalarial activity against synchronized-ring stage chloroquine-sensitive Plasmodium falciparum 3D7 assessed as growth progression defect from ring to schizont stage measured upto 60 hrs post-treatment by Giemsa staining based light microscopic analysis. It counts as functional, organism-based.
In data set [7] the test system is Plasmodium berghei. As to the kind of experiment: Antimalarial activity against Plasmodium berghei ANKA infected in female BALB/c mouse assessed as survival at 50 to 100 mg/kg, ip. It counts as functional. Particulars: dose 50-100 mg/kg.
The target of data set [8] is T2, Falcipain-3 (Plasmodium falciparum 3D7) (UniProt Q8IIL0).
T2 sequence (whole entry): T1 sequence (Q8IIL0 whole entry)
As to the kind of experiment: Inhibition of N-terminal 6His-tagged recombinant Plasmodium falciparum FP3 expressed in Escherichia coli M15 using Z-Phe-Arg-AMC as substrate at 5 uM measured after 30 mins by microplate reader analysis relative to control.

Data set [9] has as its system Plasmodium berghei. As to the kind of experiment: Antimalarial activity against Plasmodium berghei ANKA infected in BALB/c mouse assessed as increase in survival at 50 to 100 mg/kg, ip p preadministered with phenylhydrazine for 3 days followed by compound administration and measured after 5 days. Format: functional, organism-based. The note with it: dose 50-100 mg/kg, time 5.0 day.

Data set [10] is described as follows: Drug metabolism in human liver S9 fraction assessed as mono-hydroxylation mediated metabolite formation at 2 uM measured for 90 mins by LC-MS/MS analysis. Format: ADME, subcellular. The note with it: s9, 1.5 h.
In data set [11] the target is T3, Falcipain 2 (Plasmodium falciparum) (UniProt Q9N6S8).
T3 sequence (whole entry): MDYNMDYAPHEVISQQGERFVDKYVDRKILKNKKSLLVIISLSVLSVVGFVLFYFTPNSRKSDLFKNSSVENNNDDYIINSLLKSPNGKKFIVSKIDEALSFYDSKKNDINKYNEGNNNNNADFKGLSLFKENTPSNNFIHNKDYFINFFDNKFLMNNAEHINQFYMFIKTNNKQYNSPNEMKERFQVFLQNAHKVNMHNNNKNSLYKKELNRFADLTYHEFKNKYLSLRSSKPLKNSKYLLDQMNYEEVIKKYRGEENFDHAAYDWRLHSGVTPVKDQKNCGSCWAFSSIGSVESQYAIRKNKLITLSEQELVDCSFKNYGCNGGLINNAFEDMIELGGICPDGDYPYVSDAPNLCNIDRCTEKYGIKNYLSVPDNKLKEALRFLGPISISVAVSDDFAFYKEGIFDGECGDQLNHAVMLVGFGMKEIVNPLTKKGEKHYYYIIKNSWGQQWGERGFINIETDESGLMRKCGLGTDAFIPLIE
As to the kind of experiment: Binding affinity to N-terminal 6His-tagged recombinant Plasmodium falciparum FP2 expressed in Escherichia coli M15 assessed as association rate constant (Kon) by surface plasmon resonance analysis. On the technique in general: SPR reads the build-up and loss of mass on a sensor chip optically.

A short description of data set [12]: Toxicity against mouse assessed as effect on complete blood count at 100 to 200 mg/kg measured after 7 days by automated hematology analyzer. It counts as organism-based. Particulars: in vivo, 168 h, dose 100-200 mg/kg, time 7 day.
Data set [13] in a line: Toxicity in mouse assessed as frequency of rearing activity at 200 mg/kg measured over 5 mins by open field arena test (reference value: 18.14 +/- 2.6 sec). It counts as organism-based. The note with it: in vivo.
Data set [14] has as its system Plasmodium falciparum. Briefly: Antimalarial activity against chloroquine-resistant Plasmodium falciparum K1 assessed as inhibition of parasite growth by lactate dehydrogenase assay. Format: functional, organism-based.
Data set [15] in a line: Toxicity in mouse assessed as cell apoptosis in spleen at 100 to 200 mg/kg measured after 7 days by hematoxylin and eosin staining based analysis. It counts as organism-based. The note with it: in vivo, 168 h, dose 100-200 mg/kg, time 7 day.
Data set [16] concerns Plasmodium falciparum. As to the kind of experiment: Antimalarial activity against synchronized-trophozoite stage chloroquine-sensitive Plasmodium falciparum 3D7 assessed as inhibition of parasite growth by measuring pyknotic appearance measured upto 60 hrs by Giemsa staining based light microscopic analysis. Format: functional, organism-based.
The test system of data set [17] is Plasmodium berghei. As to the kind of experiment: Antimalarial activity against Plasmodium berghei ANKA infected in female BALB/c mouse assessed as reduction in parasitemia at 50 mg/kg, ip measured on day 4 post infection by Giemsa staining based light microscopy (Rvb >17 %). It counts as functional. On the set-up: scale not given: the % may be the effect or the level left.

The nature of data set [18]: Drug metabolism in mouse liver S9 fraction assessed as mono-hydroxylation mediated metabolite formation at 2 uM measured for 90 mins by LC-MS/MS analysis. It counts as ADME, subcellular. Particulars: s9, 1.5 h.
For data set [19], the system named is Plasmodium falciparum. Briefly: Antimalarial activity against ring stage chloroquine-sensitive Plasmodium falciparum 3D7 assessed as growth inhibition incubated for 72 hrs by SYBR Green dye based analysis. It counts as functional, organism-based. The note with it: 3D7, 72 h.
Data set [20] concerns the target T3, Falcipain 2 (Plasmodium falciparum). Briefly: Binding affinity to N-terminal 6His-tagged recombinant Plasmodium falciparum FP2 expressed in Escherichia coli M15 assessed as dissociation rate constant (Koff) by surface plasmon resonance analysis.
A short description of data set [21]: Stability of the compound in tris buffer at pH 7.4 at 1 uM measured after 120 mins by LC-MS/MS analysis. Format: physicochemical. Particulars: pH 7.4, 2 h.
In data set [22] the test system is Plasmodium berghei. Briefly: Antimalarial activity against Plasmodium berghei ANKA infected in female BALB/c mouse assessed as reduction in parasitemia at 100 mg/kg, ip measured on day 4 post infection by Giemsa staining based light microscopy (Rvb >17 %). Format: functional. On the set-up: scale not given: the % may be the effect or the level left.

What is called IC50 is the point on the concentration scale where inhibition reaches its midpoint. Usually Kd stands for the equilibrium constant for the complex coming apart. Usually inhibition stands for the percentage by which the read-out fell short of the control. On to `O=C(Cn1cc(CN2CCN(c3ccnc4cc(Cl)ccc34)CC2)nn1)Nc1cccc([N+](=O)[O-])c1`, for which the Time in [1] is recorded as 12.04 s. Moreover, the IC50 was 1.96 µM in the data set with Plasmodium falciparum [2], 19.9 µM with Hemozoin, 1.89 µM with Plasmodium falciparum [14] and 0.96 µM with Plasmodium falciparum [19]. For the same compound, the result with Plasmodium falciparum [3], in the data set with Plasmodium falciparum [5], with Plasmodium falciparum [6], with Plasmodium berghei [9] and with Plasmodium falciparum [16] was Active. Further, the microsomal CLint at 2 µM in data set [4] is 7.78 µL/min/mg. In addition, at Falcipain-3, the Kd is 54.4 µM. Moreover, the Survival entry with Plasmodium berghei [7] is on record as “<=30 day”. Besides, the inhibition in data set [8] is 27.3%. The Drug metabolism result in [10] and in data set [18] was “Metabolite_Detected” each time. For the same compound, the K in data set [11] was determined as 680 M⁻¹ s⁻¹; in data set [20], 0.097 s⁻¹. The Activity result in data set [12] was “Non-Toxic”; in data set [13], 14.32 s; in data set [15] it was “Non-Toxic”; in the data set with Plasmodium berghei [17], more than 7%; in the data set with Plasmodium berghei [22], 100%. In [21], the Stability entry is “Stable”.

The values above are taken from ChEMBL document CHEMBL5523667, “Blood-stage antimalarial activity, favourable metabolic stability and in vivo toxicity of novel piperazine linked 7-chloroquinoline-triazole conjugates” (Eur J Med Chem, 2024).
